In general, Ki refers to a measure of affinity in units of concentration, obtained from inhibition or displacement.

SMILES strings stand for the structures.

The test deals with T1, Carbonic anhydrase (Candida albicans (strain SC5314 / ATCC MYA-2876) (Yeast), UniProt Q5AJ71).
T1 sequence (Q5AJ71 whole entry): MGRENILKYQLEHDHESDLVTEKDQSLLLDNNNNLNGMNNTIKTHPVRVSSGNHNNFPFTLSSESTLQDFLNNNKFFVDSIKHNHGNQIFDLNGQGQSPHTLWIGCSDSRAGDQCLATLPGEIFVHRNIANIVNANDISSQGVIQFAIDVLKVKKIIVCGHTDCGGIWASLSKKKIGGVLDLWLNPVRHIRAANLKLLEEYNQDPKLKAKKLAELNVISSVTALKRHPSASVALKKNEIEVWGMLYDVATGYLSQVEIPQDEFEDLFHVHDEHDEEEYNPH
Take `Nc1ccc(S(=O)(=O)NCc2ccc(S(N)(=O)=O)cc2)cc1`: the inhibition constant (Ki) came to 1310 nM. This counts as single-digit micromolar. For `Nc1cc(Cl)c(S(N)(=O)=O)cc1S(N)(=O)=O` the value was 874 nM; for `Nc1ccc(S(=O)(=O)Nc2nnc(S(N)(=O)=O)s2)cc1`, 1090 nM; for `NS(=O)(=O)c1nnc(-c2ccccc2Cl)s1`, 1290 nM. `Nc1nccc(Nc2ccc(S(N)(=O)=O)cc2)n1` yielded a Ki of 1110 nM. This Ki and that of the molecule before are within 1.5-fold of each other. As to `Nc1ccc(S(N)(=O)=O)cc1Br`, the Ki was 408 nM. Against the preceding molecule, the Ki is about 2.7-fold lower. On to `Cn1nc(S(N)(=O)=O)sc1=N`, for which the affinity corresponds to a Ki of 1370 nM. Compared with the last molecule, the Ki is about 3.4-fold higher. For `NS(=O)(=O)c1ccc(CCO)cc1` the value was 1210 nM; for `Nc1ccc(S(N)(=O)=O)cc1F`, 1240 nM; for `NS(=O)(=O)c1ccc(CO)cc1`, 383 nM. As for `NCCc1ccc(S(N)(=O)=O)cc1`, the figure is 3200 nM. As for `Nc1ccc(S(N)(=O)=O)cc1Cl`, the figure is 1340 nM; as for `Nc1ccc(S(=O)(=O)NCCc2ccc(S(N)(=O)=O)cc2)cc1`, 727 nM; as for `Nc1cc(C(F)(F)F)c(S(N)(=O)=O)cc1S(N)(=O)=O` [2,4-DISULFAMYLTRIFLUOROMETHYLANILINE], 6110 nM. `NS(=O)(=O)c1nnc(NS(=O)(=O)c2ccccc2)s1` [BENZOLAMIDE] came in with an inhibition constant Ki of 1510 nM. Molecule `CCN[C@H]1CN(CCCOC)S(=O)(=O)c2sc(S(N)(=O)=O)cc21` [BRINZOLAMIDE] displayed a Ki of 1100 nM. As for `NS(=O)(=O)c1ccc(C(=O)O)cc1` [CARZENIDE], the inhibition constant Ki stood at 861 nM. As for `Cc1ccc(-c2cc(C(F)(F)F)nn2-c2ccc(S(N)(=O)=O)cc2)cc1` [CELECOXIB], the figure is 1020 nM.

`NCc1ccc(S(N)(=O)=O)cc1` [MAFENIDE] returned a Ki of 1110 nM. This Ki and that of the molecule before are within 1.5-fold of each other. In turn, `O=C1NS(=O)(=O)c2ccccc21` [SACCHARIN] displayed a Ki of 736 nM. In turn, `Nc1ccc(S(N)(=O)=O)cc1` [SULFANILAMIDE] returned an inhibition constant (Ki) of 7630 nM. Compared with the last molecule, the Ki is about 10-fold higher.

`CC1(C)O[C@@H]2[C@@H](CO[C@@]3(COS(N)(=O)=O)OC(C)(C)O[C@@H]23)O1` [TOPIRAMATE] came in with a Ki of 1110 nM.

The values are drawn from ChEMBL document CHEMBL1152937, “Carbonic anhydrase inhibitors. Inhibition and homology modeling studies of the fungal beta-carbonic anhydrase from Candida albicans with sulfonamides” (Bioorg Med Chem, 2009).
